Test results: patent publication US8278485B2, “Process for the production of 2-[4-(3- and 2-fluorobenzyloxy) benzylamino] propanamides” (Newron Pharmaceuticals S.p.A., priority 2006, dated 2012)

How the values were obtained:
[1] = Cytotoxicity assay in human neuroblastoma cell line SH-SY-5Y; format: cell-based; details: SH-SY-5Y neuroblastoma cells, 24 hours incubation, Alamar Blue, concentration inducing 50% of mortality
Protocol: Cytotoxicity Assay in Human Neuroblastoma Cell Line SH-SY-5Y
At time zero, the cells were seeded at 1.10^4/cm^2 in 96 well plates in DMEM growth medium+10% heat inactivated FBS+2 mM 1-Glutamine+100 U/mL-100 μg/mL Penicillin/Streptomycin.
After 72 hours at subconfluent phase of growth, the medium was removed and cells were incubated for 24 hours at 37° C. in 180 μl of neurobasal medium+2 mM 1-Glutamine (Life Technologies) with or without test compounds (20 μl, at least 5 concentrations in triplicate).
At the end of incubation, 20 μl of Alamar Blue dye (AlamarBlue™ Assay Kit, Promega) were directly added to the cell medium.
Four hours after, the cytotoxicity was assessed by measuring the fluorescence at 530 nm excitation and 595 nm emission using Tecan Spectrafluor plate reader.
Before and at the end of the treatment, the cultures were monitored microscopically by an Olympus IX70 inverted light microscope matched to an Image Analyzer (Image Pro Plus, 5.1) to evaluate the cellular morphology.
Results are expressed in Table 1 as concentration inducing 50% of mortality.

[2] = biological target: T1, CYP3A4 (Homo sapiens, UniProt P08684); experiment: Cytochrome P450 assay (Gentest Kit), CYP3A4; format: in vitro ADME; details: human recombinant isoenzyme, Table 1
T1 construct: purchased Gentest
T1 sequence (P08684 whole entry): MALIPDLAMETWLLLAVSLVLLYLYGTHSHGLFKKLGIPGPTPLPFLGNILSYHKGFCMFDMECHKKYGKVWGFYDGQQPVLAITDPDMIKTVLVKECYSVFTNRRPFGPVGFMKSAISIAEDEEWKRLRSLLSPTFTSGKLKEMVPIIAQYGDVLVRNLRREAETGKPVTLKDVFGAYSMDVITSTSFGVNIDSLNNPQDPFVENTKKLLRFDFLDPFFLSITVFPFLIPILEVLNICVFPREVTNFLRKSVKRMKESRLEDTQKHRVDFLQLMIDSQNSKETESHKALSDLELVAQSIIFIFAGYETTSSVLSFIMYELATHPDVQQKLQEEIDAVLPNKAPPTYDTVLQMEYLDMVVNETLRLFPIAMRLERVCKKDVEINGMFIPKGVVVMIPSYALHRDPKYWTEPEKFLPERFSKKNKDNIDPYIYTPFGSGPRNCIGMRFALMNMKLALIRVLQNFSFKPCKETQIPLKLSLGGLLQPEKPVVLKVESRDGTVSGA
Protocol: (§1) Inhibition of the five most important Cytochrome P450 isoforms (CYP1A2, CYP2C9, CYP2C19, CYP2D6 and CYP3A4), involved in drug metabolism, was measured using specific substrates that become fluorescent upon CYP metabolism (Gentest Kit assay).
(§2) Compounds were tested in a 96-well plate containing incubation/NADPH regenerating buffer. Specific human recombinant isoenzymes and substrates were added and incubated at 37° C. for 15 minutes for CYP1A2/CEC, […], 45 minutes for CYP2C9/MFC and 30 minutes for the others CYP450.
benzylphenylcoumarin (CYP3A4)

[3] = biological target: T2, CYP2D6 (Homo sapiens, UniProt P10635); experiment: Cytochrome P450 assay (Gentest Kit), CYP2D6; format: in vitro ADME; details: human recombinant isoenzyme
T2 construct: purchased Gentest
T2 sequence (P10635 whole entry): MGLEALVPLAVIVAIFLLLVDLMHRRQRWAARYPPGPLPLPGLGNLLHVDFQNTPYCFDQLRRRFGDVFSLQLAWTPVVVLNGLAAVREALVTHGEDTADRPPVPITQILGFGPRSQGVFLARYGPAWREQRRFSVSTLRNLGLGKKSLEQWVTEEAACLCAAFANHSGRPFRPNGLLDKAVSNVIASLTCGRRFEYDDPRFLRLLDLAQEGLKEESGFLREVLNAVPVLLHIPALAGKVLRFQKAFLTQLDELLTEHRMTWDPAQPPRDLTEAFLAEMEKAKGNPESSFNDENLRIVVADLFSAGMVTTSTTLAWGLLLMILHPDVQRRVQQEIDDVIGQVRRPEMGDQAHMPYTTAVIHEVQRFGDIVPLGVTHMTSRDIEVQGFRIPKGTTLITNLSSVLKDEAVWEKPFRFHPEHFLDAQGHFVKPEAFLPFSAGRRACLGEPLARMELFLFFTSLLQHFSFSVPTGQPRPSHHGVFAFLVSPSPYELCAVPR
Protocol: as §1, §2
3[2(N,N-diethyl-N-mwthylamino) ethyl]-7-methoxy-4-methylcoumarin (CYP2D6)

[4] = biological target: T3, CYP2C19 (Homo sapiens, UniProt P33261); experiment: Cytochrome P450 assay (Gentest Kit), CYP2C19; format: in vitro ADME; details: human recombinant isoenzyme
T3 construct: purchased Gentest
T3 sequence (P33261 whole entry): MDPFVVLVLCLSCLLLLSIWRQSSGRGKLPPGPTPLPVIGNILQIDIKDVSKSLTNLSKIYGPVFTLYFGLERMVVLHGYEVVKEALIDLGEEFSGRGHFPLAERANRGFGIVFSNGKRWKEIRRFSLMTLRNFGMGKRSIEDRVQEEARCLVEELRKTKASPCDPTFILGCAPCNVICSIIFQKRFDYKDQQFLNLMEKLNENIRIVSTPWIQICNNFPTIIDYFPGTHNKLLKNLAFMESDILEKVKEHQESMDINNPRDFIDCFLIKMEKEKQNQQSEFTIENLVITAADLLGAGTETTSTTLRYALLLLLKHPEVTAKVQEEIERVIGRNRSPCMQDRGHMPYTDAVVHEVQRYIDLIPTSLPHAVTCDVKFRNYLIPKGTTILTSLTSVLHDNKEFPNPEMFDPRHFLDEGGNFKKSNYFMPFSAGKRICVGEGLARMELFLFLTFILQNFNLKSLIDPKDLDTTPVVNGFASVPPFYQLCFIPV
Protocol: as §1, §2
(§3) The specific substrates were the following: 3-cyano-7-ethoxycoumarin (CYP2C19 and CYP1A2),

[5] = biological target: T4, CYP2C9 (Homo sapiens, UniProt P11712); experiment: Cytochrome P450 assay (Gentest Kit), CYP2C9; format: in vitro ADME; details: human recombinant isoenzyme
T4 construct: purchased Gentest
T4 sequence (P11712 whole entry): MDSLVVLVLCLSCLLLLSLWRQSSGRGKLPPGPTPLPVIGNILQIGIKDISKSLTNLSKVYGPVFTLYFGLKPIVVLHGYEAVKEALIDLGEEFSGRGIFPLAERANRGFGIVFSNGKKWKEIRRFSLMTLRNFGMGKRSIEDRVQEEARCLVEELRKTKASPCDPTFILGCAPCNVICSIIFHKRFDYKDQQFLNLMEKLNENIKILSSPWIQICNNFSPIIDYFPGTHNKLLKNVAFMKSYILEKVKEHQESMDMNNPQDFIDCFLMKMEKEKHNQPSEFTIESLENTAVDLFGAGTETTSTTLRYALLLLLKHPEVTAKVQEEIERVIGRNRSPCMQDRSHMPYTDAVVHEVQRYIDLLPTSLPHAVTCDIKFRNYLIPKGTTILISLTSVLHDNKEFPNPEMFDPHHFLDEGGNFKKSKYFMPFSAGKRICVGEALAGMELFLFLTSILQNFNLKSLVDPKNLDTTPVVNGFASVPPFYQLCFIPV
Protocol: as §1, §2
7-methoxy-4-trifluoromethylcoumarin (CYP2C9),

[6] = biological target: T5, CYP1A2 (Homo sapiens, UniProt P05177); experiment: Cytochrome P450 assay (Gentest Kit), CYP1A2; format: in vitro ADME; details: human recombinant isoenzyme
T5 construct: purchased Gentest
T5 sequence (P05177 1-516): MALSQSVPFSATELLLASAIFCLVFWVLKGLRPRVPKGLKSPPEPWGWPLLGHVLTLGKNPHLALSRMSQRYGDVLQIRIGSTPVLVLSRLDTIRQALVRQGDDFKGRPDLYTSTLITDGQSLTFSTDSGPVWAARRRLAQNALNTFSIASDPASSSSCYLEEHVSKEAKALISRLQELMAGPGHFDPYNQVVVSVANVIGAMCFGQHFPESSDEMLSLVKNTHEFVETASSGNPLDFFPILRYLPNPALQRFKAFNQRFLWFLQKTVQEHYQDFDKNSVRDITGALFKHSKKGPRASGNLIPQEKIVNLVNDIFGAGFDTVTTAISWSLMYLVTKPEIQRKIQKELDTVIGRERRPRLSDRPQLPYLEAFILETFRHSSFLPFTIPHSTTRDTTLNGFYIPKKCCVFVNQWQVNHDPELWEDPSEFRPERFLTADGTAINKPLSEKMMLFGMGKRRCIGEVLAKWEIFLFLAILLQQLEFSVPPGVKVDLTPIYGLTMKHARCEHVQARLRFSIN
Protocol: as §1, §2, §3

[7] = system: mice; experiment: Maximal Electroshock Test (MES) in mice; format: in vivo
Protocol: Maximal Electroshock Test (MES) in Mice
The maximal electroshock test (MES) is used commonly in the screening of anti-epileptic drugs in rodent models.
Animals and Apparatus: Male CD1 mice weighing 25 g were used. […] The stimulus was delivered intra-aurally through clip electrodes in mice (0.7 seconds of a 40 mA shock, with a pulse train of 80 Hz having a pulse duration of 0.4 ms). The acute effect of compounds administered intraperitoneally or orally 15-60 minutes before MES induction were examined and compared with a vehicle control group. Ten mice were studied per group. Complete suppression of the hindlimb tonic extensor component of seizures was taken as evidence of anticonvulsant activity.
The compounds of the invention were administered orally or intraperitoneally at the doses of 3-30 mg/kg.
The results are expressed in Tables 3 and 4 as % of protection.

[8] = biological target: HERG channel (Homo sapiens, UniProt Q12809); experiment: HERG current in transfected CHO cell lines
HERG channel, sequence (Q12809 whole entry): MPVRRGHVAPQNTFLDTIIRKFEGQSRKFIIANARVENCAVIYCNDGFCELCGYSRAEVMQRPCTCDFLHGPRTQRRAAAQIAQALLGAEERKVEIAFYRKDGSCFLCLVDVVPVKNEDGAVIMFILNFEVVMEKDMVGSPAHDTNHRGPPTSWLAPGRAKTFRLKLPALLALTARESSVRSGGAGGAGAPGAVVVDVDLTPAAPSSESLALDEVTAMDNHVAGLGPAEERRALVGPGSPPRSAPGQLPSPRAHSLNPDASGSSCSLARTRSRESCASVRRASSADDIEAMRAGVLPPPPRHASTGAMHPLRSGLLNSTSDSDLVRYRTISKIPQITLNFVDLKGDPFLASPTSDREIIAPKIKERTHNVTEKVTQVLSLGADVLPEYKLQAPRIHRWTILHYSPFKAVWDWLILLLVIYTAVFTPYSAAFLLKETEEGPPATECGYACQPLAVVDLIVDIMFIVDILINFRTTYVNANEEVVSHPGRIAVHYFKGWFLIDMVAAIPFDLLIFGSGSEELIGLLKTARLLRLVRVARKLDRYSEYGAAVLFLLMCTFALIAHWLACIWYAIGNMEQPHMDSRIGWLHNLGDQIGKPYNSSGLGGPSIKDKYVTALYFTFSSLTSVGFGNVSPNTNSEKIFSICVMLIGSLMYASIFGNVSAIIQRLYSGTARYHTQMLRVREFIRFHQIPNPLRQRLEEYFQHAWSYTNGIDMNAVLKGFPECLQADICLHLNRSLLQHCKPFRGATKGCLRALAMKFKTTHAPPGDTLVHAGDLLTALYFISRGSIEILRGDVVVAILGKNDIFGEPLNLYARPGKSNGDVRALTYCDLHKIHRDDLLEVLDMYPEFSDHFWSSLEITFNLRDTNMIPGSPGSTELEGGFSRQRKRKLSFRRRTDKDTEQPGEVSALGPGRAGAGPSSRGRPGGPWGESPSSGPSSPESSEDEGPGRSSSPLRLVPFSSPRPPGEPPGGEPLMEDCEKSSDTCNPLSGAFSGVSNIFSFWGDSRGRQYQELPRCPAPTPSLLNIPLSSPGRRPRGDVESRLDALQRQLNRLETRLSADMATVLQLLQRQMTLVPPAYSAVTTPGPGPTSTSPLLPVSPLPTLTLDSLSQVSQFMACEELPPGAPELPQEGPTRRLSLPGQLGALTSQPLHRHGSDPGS
Protocol: The inhibition of HERG current was tested in CHO cells stably expressing recombinant HERG channel.
To evaluate the effect of the test compounds on HERG currents, cells were clamped at −80 Mv, depolarised to 0 mV for 5 seconds allowing activation of HERG current and repolarised to −50 mV during 5 seconds allowing HERG tail current to deactivate. This procedure was repeated at a frequency of 0.06 Hz. The current amplitude upon repolarisation (HERG tail current) was measured before and after exposure to the test compound.
Inhibition of current was calculated as the difference between the amplitude of HERG tail current amplitude measured at the end of external bath perfusion period and HERG tail current measured at the end of test compound perfusion period (when steady-state effect is reached) divided by control HERG tail current.
Drug concentration-inhibition curves were obtained by plotting tonic blocks versus drug concentrations. Dose-response curves were fitted to the tonic block data, according to the logistic equation: y=A2+(A1−A2)/[1+(x/IC50)^p].

[9] = system: mice; experiment: Amphetamine plus chlordiazepoxide-induced hyperlocomotion in mice; format: in vivo
Protocol: FIG. 1 provides total locomotor activity over 30 min. Mice were treated with ralfinamide (10; 30 and 60 mg/kg, po); or saline and returned to their home cage. After 30 min they received an injection of Amph (2.5 mg/kg; ip); Amph/CDP mixture (2.5 and 3.125 mg/kg; ip) or saline immediately prior to be placed in the test cage. Locomotor activity was recorded for 30 min.
Amphetamine Plus Chlordiazepoxide-Induced Hyperlocomotion in Mice
The anti mania activity, predictive of efficacy in bipolar disorders, was measured using the “Amphetamine plus chlordiazepoxide-induced hyperlocomotion in mice” model according to the following procedure.
In this model, mice are treated with a mixture of d-amphetamine plus an anxiolytic dose of the benzodiazepine, chlordiazepoxide (Rushton R and Steinberg H. Nature 1966; 211: 1312-3; R. Arban, et al. Behavioural Brain Research, 158: 123-132). The model has been claimed to mimic some aspects of mania in bipolar disorder. Importantly, the hyperactivity induced by the mixture of d-amphetamine and chlordiazepoxide could be prevented by prior administration of the established mood stabilizer, lithium, as well as other mood stabilizers drugs (e.g. magnesium valproate and carbamazepine). Therefore, this model has face and predictive validity as a model of bipolar disorders and represents a valuable tool to determine, if a test compound could be a potential mood stabilizer drug candidate.
D-amphetamine (Amph) (2.5 mg/kg ip) plus chlordiazepoxide hydrochloride (CDP) (3 mg/kg ip) were administered to male Albino Swiss mice (25-32 g) in a volume of 10 ml/kg. The locomotor activity was recorded using an automated Activity Cage LE 881 (Panlab) (45×45 cm). This system detects animal movements from 2 levels of 4 side infrared sensors placed all around the square cage. Mice were pretreated with the test compound (0.5-60 mg/kg po) and 30 min later, with Amph (2.5 mg/kg ip) or Amph jointly with CDP (3 mg/kg ip) and were placed individually in the motor activity cages. The locomotor activity was measured in terms of total distance travelled (cm) over a period of 30 min. Each group consisted of 8-10 mice.
Statistical analysis: a two-way analysis of variance (ANOVA) with Amph treatment factor and drug treatment factor was performed. Bonferroni's procedure was used for multiple comparison post hoc analysis.
D-amphetamine-chlordiazepoxide administration induced a significant increase in locomotor activity.

Row | SMILES | IC50 at 24 h [1] | IC50 [2] | IC50 [3] | IC50 [4] | IC50 [5] | IC50 [6] | MES % protection ([7]; mice, 3 mg/kg ip) | MES % protection ([7]; mice, 10 mg/kg ip) | MES % protection ([7]; mice, 30 mg/kg ip) | IC50 [8] | MES Protection % ([7]; mice, 10 mg/kg p.o.) | MES (head blank; protection) ([7]; mice, 20 mg/kg p.o.) | other results
1 | C[C@H](NCc1ccc(OCc2cccc(F)c2)c(Cc2cccc(F)c2)c1)C(N)=O [Impurity IIc, (S)-2-[3-(3-fluorobenzyl)-4-(3-fluorobenzyloxy)-benzylamino]propanamide methanesulfonate] | 6.7 µM | 0.05 µM | 0.77 µM | 0.42 µM | 7.29 µM | > 40 µM | 0% | 0% | 0% | 1.2 µM |  |  | MES dead/live ([7]; mice, 3 mg/kg ip): 5/10; MES dead/live ([7]; mice, 10 mg/kg ip): 4/10; MES dead/live ([7]; mice, 30 mg/kg ip): 4/10; pharmacological activity, i.e. protection from convulsions, in MES test ([7]; mice, ip, from 3 mg/kg): without any pharmacological activity; mortality in the mice MES test ([7]; starting from 3 mg/kg ip): increases
2 | C[C@H](NCc1ccc(OCc2ccccc2F)c(Cc2ccccc2F)c1)C(N)=O [Impurity IId, (S)-2-[3-(2-fluorobenzyl)-4-(2-fluorobenzyloxy)-benzylamino]propanamide methanesulfonate] | 15 µM | 0.05 µM | 0.92 µM | 1.89 µM | 8.01 µM | > 40 µM |  |  |  | 2.66 µM | 0% | 0% | MES dead/live ([7]; mice, 10 mg/kg p.o.): 0/10; MES dead/live ([7]; mice, 20 mg/kg p.o.): 0/10; protection from convulsions in MES test ([7]; mice, p.o. at 10 and 20 mg/kg): doesn't protect
3 | C[C@H](NCc1ccc(OCc2ccccc2F)cc1)C(N)=O [ralfinamide, (S)-2-[4-(2-fluorobenzyloxy)-benzylamino]propanamide] |  |  |  |  |  |  |  |  |  |  |  |  | total locomotor activity over 30 min, Bonferroni versus Amph/CDP mixture ([9]; 30 mg/kg po): statistical difference; total locomotor activity over 30 min, Bonferroni versus Amph alone ([9]; 60 mg/kg po): statistical difference; total locomotor activity over 30 min, Bonferroni versus Amph/CDP mixture ([9]; 60 mg/kg po): statistical difference; hyperactivity induced by Amph/CDP mixture (locomotor activity) ([9]; orally administered, 30 min before Amph/CDP ip): significantly decreasing the hyperactivity
4 | CS(=O)(=O)O.C[C@H](NCc1ccc(OCc2cccc(F)c2)cc1)C(N)=O [Safinamide methanesulfonate, (S)-2-[4-(3-fluorobenzyloxy)benzylamino]propanamide methanesulfonate] | 248 µM |  | > 40 µM | 23.9 µM | > 40 µM | > 40 µM | 50% | 100% | 100% | 27 µM |  |  | 
5 | CS(=O)(=O)O.C[C@H](NCc1ccc(OCc2ccccc2F)cc1)C(N)=O [Ralfinamide methanesulfonate, (S)-2-[4-(2-fluorobenzyloxy)benzylamino]propanamide methanesulfonate] | > 300 µM |  | > 40 µM | > 40 µM | > 40 µM | > 40 µM |  |  |  | 18 µM | 60% | 90% | 
